Assay results reported in patent publication US20250281483A1, “TRANSCRIPTION FACTOR EB ACTIVATORS AND USES THEREOF” (Astellas Engineered Small Molecules US, Incorporated, priority 2022, published 2025).

Target: T1, TFEB (Homo sapiens, UniProt P19484)
T1 sequence (P19484 1-476): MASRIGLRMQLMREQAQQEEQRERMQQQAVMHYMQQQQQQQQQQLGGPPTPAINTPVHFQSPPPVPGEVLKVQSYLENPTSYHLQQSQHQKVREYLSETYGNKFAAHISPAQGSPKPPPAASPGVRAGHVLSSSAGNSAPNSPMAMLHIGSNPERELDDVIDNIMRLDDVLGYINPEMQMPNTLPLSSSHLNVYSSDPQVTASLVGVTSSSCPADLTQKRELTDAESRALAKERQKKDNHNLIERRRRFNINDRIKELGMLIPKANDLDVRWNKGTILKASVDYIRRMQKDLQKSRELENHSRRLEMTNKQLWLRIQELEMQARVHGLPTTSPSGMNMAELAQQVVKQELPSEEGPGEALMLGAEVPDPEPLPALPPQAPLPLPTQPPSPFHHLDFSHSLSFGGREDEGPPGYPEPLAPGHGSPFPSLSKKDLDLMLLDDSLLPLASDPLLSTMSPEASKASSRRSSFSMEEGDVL
Experiment: Tfeb-Translocation Assay HEK-293T-oEX-Tfeb-GFP Cell Line
Assay type: cell-based
Conditions: HEK-293T-oEX-TFEB-GFP cells; translocation positive cells ratio; read-out: TFEB Translocation EC50
Procedure: Tfeb-Translocation Assay HEK-293T-oEX-Tfeb-GFP Cell Line
• 1). Added 2×10^6 cell into a T75 flask with 15 mL DiVEM medium (with 10% FBS, 1% PS, 1×GLUTAMAX, 1×MEM NEAA, 1×HEPES Buffer Solution and 5 ug/mL blasticidin). • 2). Culturing for 48-72 hours. Cells in logarithmic growth phase were taken for experiment. The other cells were passaged as described in step 1. • 3). Seeded 1×10^4 cells/30 μL/well into 384-well plate (BD 356663). Cultured overnight at 37° C. & 5% CO2 incubator. • 4). Note: Used cells <10 passage
• 1). Compounds were firstly diluted by DMSO to the stock needed (10 mM), and aliquoted and stored at −20° C. • 2). Took one aliquot each time and made 3-fold or 2-fold dilutions as indicated, total 10 doses plus one DMSO control well in the source plate. • 3). Added 150 or 90 nL/well compounds solution to the assay plate by ECHO and incubated for 6 or 18 hours respectively at 37° C. & 5% CO2 incubator.
• 1). Added 30 uL 8% PFA into the wells and incubated 20 min at room temperature. • 2). Discarded the medium, washed the wells twice with DPBS to eliminate foam and bubbles in the well.
• 1). Diluted Hoechest-333824 in DPBS to get 2 μg/mL solution and added 30 uL/well into assay plate, incubated at room temperature for 20 mins. • 2). Discarded the supernatant, washed the wells twice with DPBS to eliminate foam and bubbles in the well. Then added DPBS 20 uL/well.
3). Scanned Plate by Operetta.
• 1). Reference compound: Torin 1 • 2). Test compounds: C1, C2, C3, C4, C5, C6. • 3). Diluted compounds in 384 LDV-dilution plate according to the dilution plate map • 4). Compounds starting concentration: Torin 1: 300 nM and Test compounds: 50 uM.
• 1). Selected all nucleus by Operetta as ‘All Cells’ • 2). Calculated the EGFP average intensity inside the Nucleus region. • 3). Selected population that the EGFP mean intensity inside the Nucleus region>background as the EGFP-positive cells • 4). Selected the Surrounding region of the nucleus and calculated the EGFP mean intensity of the region • 5). Inside the EGFP-positive cell population, selected the cells with EGFP mean intensity inside the Nucleus region/the EGFP mean intensity inside the surrounding region=1.2 (This ratio could be slightly adjusted from time to time) as the Translocation positive cell. • 6). Outputted the ratio of Translocation positive cell/EGFP-positive cells as the Translocation Positive Ratio. • 7). Each time set the ratio of DMSO group (Control Group) as ˜15% and then normalized the compound group to the DMSO group.

Row | Compound | EC50 [µM]
1 | COCCOCCOc1ccc(CNC(=O)c2cc3c(=O)n(Cc4ccc(Cl)cc4)ccc3nc2C)nc1 [Example 77, 6-(4-chlorobenzyl)-N-((5-(2-(2-methoxyethoxy)ethoxy)pyridin-2-yl)methyl)-2-methyl-5-oxo-5,6-dihydro-1,6-naphthyridine-3-carboxamide] | ≥ 10
2 | Cc1nc2ccn(Cc3ccncc3)c(=O)c2cc1C(=O)NCc1ccccn1 [Example 52, 2-methyl-5-oxo-N-(pyridin-2-ylmethyl)-6-(pyridin-4-ylmethyl)-5,6-dihydro-1,6-naphthyridine-3-carboxamide] | ≥ 10
3 | Cc1nc2ccn(Cc3cccnc3)c(=O)c2cc1C(=O)NCc1ccc(Cl)cc1 [Comparator 1, reference compound] | 1 to 10
4 | Cc1nc2ccn(CC3CCCO3)c(=O)c2cc1C(=O)NCc1ccc(Cl)cc1 (centres unmarked) [Example 11, N-(4-chlorobenzyl)-2-methyl-5-oxo-6-((tetrahydrofuran-2-yl)methyl)-5,6-dihydro-1,6-naphthyridine-3-carboxamide] | 1 to 10
5 | Cc1nc2ccn(Cc3ccccc3)c(=O)c2cc1C(=O)NCc1ccc(OC(C)C)cc1 [Example 67, 6-benzyl-N-(4-isopropoxybenzyl)-2-methyl-5-oxo-5,6-dihydro-1,6-naphthyridine-3-carboxamide] | ≥ 10
6 | COCCn1ccc2nc(C)c(C(=O)NCc3ccccn3)cc2c1=O [Example 30, 6-(2-methoxyethyl)-2-methyl-5-oxo-N-(pyridin-2-ylmethyl)-5,6-dihydro-1,6-naphthyridine-3-carboxamide] | 1 to 10
7 | Cc1nc2ccn(-c3ccccc3)c(=O)c2cc1C(=O)NCc1ccccn1 [Example 46, 2-methyl-5-oxo-6-phenyl-N-(pyridin-2-ylmethyl)-5,6-dihydro-1,6-naphthyridine-3-carboxamide] | 1 to 10
8 | COCCOCCOCCn1ccc2nc(C)c(C(=O)NCc3ccc(Cl)cn3)cc2c1=O [Example 59, N-((5-chloropyridin-2-yl)methyl)-6-(2-(2-(2-methoxyethoxy)ethoxy)ethyl)-2-methyl-5-oxo-5,6-dihydro-1,6-naphthyridine-3-carboxamide] | ≥ 10
9 | Cc1nc2ccn(Cc3ccccn3)c(=O)c2cc1C(=O)NCc1ccccn1 [Example 41, 2-methyl-5-oxo-N,6-bis(pyridin-2-ylmethyl)-5,6-dihydro-1,6-naphthyridine-3-carboxamide] | 1 to 10
10 | Cc1cnc(Cn2ccc3nc(C)c(C(=O)NCc4ccccn4)cc3c2=O)o1 [Example 48, 2-methyl-6-((5-methyloxazol-2-yl)methyl)-5-oxo-N-(pyridin-2-ylmethyl)-5,6-dihydro-1,6-naphthyridine-3-carboxamide] | ≥ 10
11 | Cc1nc2ccn(CC3CCO3)c(=O)c2cc1C(=O)NCc1ccc(Cl)cc1 (centres unmarked) [Example 27, N-(4-chlorobenzyl)-2-methyl-6-(oxetan-2-ylmethyl)-5-oxo-5,6-dihydro-1,6-naphthyridine-3-carboxamide] | 1 to 10
12 | Cc1ccc(CNC(=O)c2cc3c(=O)n(Cc4ccc(F)cn4)ccc3nc2C)o1 [Example 2, 6-((5-fluoropyridin-2-yl)methyl)-2-methyl-N-((5-methylfuran-2-yl)methyl)-5-oxo-5,6-dihydro-1,6-naphthyridine-3-carboxamide] | 0.1 to 1
13 | CNC(=O)c1cc2c(=O)n(Cc3ccccc3)ccc2nc1C [Example 42, 6-benzyl-N,2-dimethyl-5-oxo-5,6-dihydro-1,6-naphthyridine-3-carboxamide] | ≥ 10
14 | Cc1nc2ccn(Cc3ccccc3)c(=O)c2cc1C(=O)NCc1cnn(C)c1 [Example 15, 6-benzyl-2-methyl-N-((1-methyl-1H-pyrazol-4-yl)methyl)-5-oxo-5,6-dihydro-1,6-naphthyridine-3-carboxamide] | 0.1 to 1
15 | Cc1nc2ccn(Cc3ccccc3)c(=O)c2cc1C(=O)NCc1ccc(C(F)(F)F)cc1 [Example 25, 6-benzyl-2-methyl-5-oxo-N-(4-(trifluoromethyl)benzyl)-5,6-dihydro-1,6-naphthyridine-3-carboxamide] | ≥ 10
16 | Cc1nc2ccn(Cc3ccccc3)c(=O)c2cc1C(=O)NCc1cccnc1 [Example 23, 6-benzyl-2-methyl-5-oxo-N-(pyridin-3-ylmethyl)-5,6-dihydro-1,6-naphthyridine-3-carboxamide] | 0.1 to 1
17 | Cc1cnc(CNC(=O)c2cc3c(=O)n(Cc4ccccc4)ccc3nc2C)o1 [Example 3, 6-benzyl-2-methyl-N-((5-methyloxazol-2-yl)methyl)-5-oxo-5,6-dihydro-1,6-naphthyridine-3-carboxamide] | 0.1 to 1
18 | COCCn1ccc2nc(C)c(C(=O)NCc3ccc(C)o3)cc2c1=O [Example 72, 6-(2-methoxyethyl)-2-methyl-N-((5-methylfuran-2-yl)methyl)-5-oxo-5,6-dihydro-1,6-naphthyridine-3-carboxamide] | 0.1 to 1

More lines, now with the values ahead:

Row | EC50 [µM] | Compound
19 | 0.1 to 1 | Cc1noc(CNC(=O)c2cc3c(=O)n(Cc4ccccc4)ccc3nc2C)n1 [Example 10, 6-benzyl-2-methyl-N-((3-methyl-1,2,4-oxadiazol-5-yl)methyl)-5-oxo-5,6-dihydro-1,6-naphthyridine-3-carboxamide]
20 | 0.1 to 1 | 6-benzyl-2-methyl-N-((4-methyloxazol-2-yl)methyl)-5-oxo-5,6-dihydro-1,6-naphthyridine-3-carboxamide [Example 66]
21 | < 0.1 | Cc1nc2ccn(Cc3cccc(F)c3)c(=O)c2cc1C(=O)NCc1ccccn1 [Example 55, 6-(3-fluorobenzyl)-2-methyl-5-oxo-N-(pyridin-2-ylmethyl)-5,6-dihydro-1,6-naphthyridine-3-carboxamide]
22 | 0.1 to 1 | Cc1nc2ccn(Cc3ccccc3)c(=O)c2cc1C(=O)NCc1cncnc1 [Example 34, 6-benzyl-2-methyl-5-oxo-N-(pyrimidin-5-ylmethyl)-5,6-dihydro-1,6-naphthyridine-3-carboxamide]
23 | 0.1 to 1 | Cc1nc2ccn(CC3CCCCO3)c(=O)c2cc1C(=O)NCc1ccc(Cl)cc1 (centres unmarked) [Example 26, N-(4-chlorobenzyl)-2-methyl-5-oxo-6-((tetrahydro-2H-pyran-2-yl)methyl)-5,6-dihydro-1,6-naphthyridine-3-carboxamide]
24 | 0.1 to 1 | Cc1nc2ccn(Cc3ccccc3)c(=O)c2cc1C(=O)NCc1ccccc1F [Example 16, 6-benzyl-N-(2-fluorobenzyl)-2-methyl-5-oxo-5,6-dihydro-1,6-naphthyridine-3-carboxamide]
25 | < 0.1 | Cc1nc2ccn(Cc3ccccc3)c(=O)c2cc1C(=O)NCc1ccc2c(c1)OCO2 [Example 69, N-(benzo[d][1,3]dioxol-5-ylmethyl)-6-benzyl-2-methyl-5-oxo-5,6-dihydro-1,6-naphthyridine-3-carboxamide]
26 | < 0.1 | Cc1nc(CNC(=O)c2cc3c(=O)n(Cc4ccc(F)cc4)ccc3nc2C)co1 [Example 78, 6-(4-fluorobenzyl)-2-methyl-N-((2-methyloxazol-4-yl)methyl)-5-oxo-5,6-dihydro-1,6-naphthyridine-3-carboxamide]
27 | < 0.1 | Cc1nc(CNC(=O)c2cc3c(=O)n(Cc4cc(F)cc(F)c4)ccc3nc2C)co1 [Example 81, 6-(3,5-difluorobenzyl)-2-methyl-N-((2-methyloxazol-4-yl)methyl)-5-oxo-5,6-dihydro-1,6-naphthyridine-3-carboxamide]
28 | 0.1 to 1 | Cc1nc2ccn(C(C)C)c(=O)c2cc1C(=O)NCc1ccccn1 [Example 45, 6-isopropyl-2-methyl-5-oxo-N-(pyridin-2-ylmethyl)-5,6-dihydro-1,6-naphthyridine-3-carboxamide]
29 | < 0.1 | Cc1nc2ccn(Cc3ccccc3)c(=O)c2cc1C(=O)NCc1ccc(Cl)cn1 [Example 38, 6-benzyl-N-((5-chloropyridin-2-yl)methyl)-2-methyl-5-oxo-5,6-dihydro-1,6-naphthyridine-3-carboxamide]
